Experimental data: publication PMC8507746, “The FHP01 DDX3X Helicase Inhibitor Exerts Potent Anti-Tumor Activity In Vivo in Breast Cancer Pre-Clinical Models” (Cancers, 2021)

Tests used:
phospho-β-catenin = experiment: Western blot of phospho-β-catenin in MDA MB 231 cells; assay type: cell-based, human; settings: MDA MB 231, 1 μM, 16 hrs; vehicle = 1.00
Description: Cells (1 × 10^5) were seeded in 6-well plates. After 24 h, cells were treated for indicated times with DMSO (vehicle) or FHP01 or XAV939 (Merck). After treatments, cells were washed with cold PBS and total protein extracts obtained by adding 80 µL of “RIPA Lysis buffer” (50 mM Tris-HCl pH 8.0, 150 mM NaCl, 0.5% Sodium deoxycholate, 0.1% SDS, 1% NP-40, 2 mM Orthovanadate, 2mM Sodium fluoride, 1mM Dithiothreitol and 1× protease inhibitors). After mechanicals detachment with cell scrapers, total lysates were collected in tubes, vortexed, and incubated for 15 min on ice. Tumors from mice were collected and disrupted by bead homogenization in Lysing Matrix D tubes using a FastPrep-24 5G homogenizer (MP Biomedicals, Solon, OH, USA) filled with “RIPA Lysis buffer” w:v. Next, samples were centrifuged for 10 min at 16,000× g, and supernatants were collected, representing total cell lysates.
Densitometric analysis of western blots was performed with NIH Image J (National Institutes of Health).

[1] = system: WNT signaling (TCF/LEF transcriptional activity); experiment: TCF/LEF luciferase reporter assay (WNT1/WNT3A) in MDA MB 231 cells; assay type: cell-based, human; settings: MDA MB 231, WNT1/WNT3A, 1 μM, 16 hrs
Description: MDA MB 231 cells were seeded at 3 × 10^4 cells/well density in 12-well plates, in triplicate, and transfected with 250 ng of the M50 Super 8× TOPFlash reporter vector (Addgene Plasmid #12456) and 1 μg of expression vectors inducing the WNT pathway (Wnt1-V5, Addgene plasmid #43807, and Wnt3A-V5, Addgene plasmid #43810). Eight hours after transfection, cells were treated with FHP01, XAV939 (Merck, Kenilworth, NJ, USA) or DMSO for indicated times prior to lysis in Passive Lysis Buffer (Promega, Madison, WI, USA). Luciferase activity in cellular lysates was assessed on a Glomax 20/20 luminometer (Promega) using the Luciferase Assay System (Promega). Results were normalized for GFP expression, upon transfection with GFP coding vector (1 μg). Representative results from 3 independent experiments are shown (n = 3). Error bars represent the Standard Error of the Mean. All samples were read at least in triplicate.

SMILES: Oc1nc(-c2ccc(C(F)(F)F)cc2)nc2c1CSCC2 [XAV939, reference compound]
- Phospho-β-catenin : ERK2 (phospho-β-catenin): 2.64
- TCF/LEF-dependent transcription [1]: efficient attenuation
